Literature values, collected in Sander's compilation of Henry's law constants.
Where “and” joins values, the source holds several entries; their conditions need not be identical. Equal values may be shown once.

Assay: Henry solubility constant Hcp at 298.15 K (mol/(m3 Pa))
Details: cited value
[1] = reference: Mackay et al. (1995)
[2] = reference: Burkholder et al. (2015)
[3] = reference: Burkholder et al. (2019)
[4] = reference: Sander et al. (2011)
[5] = reference: Sander et al. (2006)
[6] = reference: Barcelo and Hennion (1997)
[7] = reference: Wania and Dugani (2003)
[8] = reference: Fogg and Sangster (2003)
[9] = reference: Meylan and Howard (1991)

COCCOC [1,2-dimethoxyethane]
Henry solubility constant Hcp (reference: Brockbank (2013)): 1.3

CCCBr [1-bromopropane]
Henry solubility constant Hcp (reference: Brockbank (2013)): 0.0011

CCCN(CCC)N=O [N-nitrosodipropylamine]
Henry solubility constant Hcp [1]: 1.6

CC(=O)OCC(F)(F)F [2,2,2-trifluoroethyl ethanoate]
Henry solubility constant Hcp [2]: 0.0055
Henry solubility constant Hcp [3]: 0.0055
Henry solubility constant Hcp [4]: 0.0055

C=CCCCCCCCC [1-decene]
Henry solubility constant Hcp (reference: Brockbank (2013)): 8.6e-06

C[C@@H]1CCCC[C@@H]1C [cis-1,2-dimethylcyclohexane]
Henry solubility constant Hcp (reference: Brockbank (2013)): 2.6e-05

C1=CCCCCC1 [cycloheptene]
Henry solubility constant Hcp (reference: Brockbank (2013)): 0.0002

O=[N+]([O-])c1ccc(O)cc1 [4-nitrophenol]
Henry solubility constant Hcp (reference: Goldstein (1982)): 9.8

ClC1=C(Cl)C(Cl)(Cl)C(Cl)=C1Cl [hexachlorocyclopentadiene]
Henry solubility constant Hcp (reference: Goldstein (1982)): 0.0006

c1ccc2cc3cc4ccccc4cc3cc2c1 [naphthacene]
Henry solubility constant Hcp (reference: Mackay et al. (1992b)): 250

ClCCCCCl [1,4-dichlorobutane]
Henry solubility constant Hcp (reference: Brockbank (2013)): 0.02

OCl [hypochlorous acid]
Henry solubility constant Hcp [2]: 6.5
Henry solubility constant Hcp [3]: 6.5
Henry solubility constant Hcp (reference: Huthwelker et al. (1995)): 6.5
Henry solubility constant Hcp [5]: 6.5
Henry solubility constant Hcp [4]: 6.5

CS(C)=O [dimethylsulfoxide]
Henry solubility constant Hcp (reference: Betterton (1992)): 14
Henry solubility constant Hcp (reference: Brockbank (2013)): 8000
Henry solubility constant Hcp [2]: 980
Henry solubility constant Hcp [3]: 980
Henry solubility constant Hcp [5]: 980
Henry solubility constant Hcp [4]: 980

CCOC1Oc2ccc(OS(C)(=O)=O)cc2C1(C)C (centres undefined) [ethofumesate]
Henry solubility constant Hcp [6]: 45

ClNCl [dichloramine]
Henry solubility constant Hcp [2]: 0.29
Henry solubility constant Hcp [3]: 0.29
Henry solubility constant Hcp [5]: 0.29
Henry solubility constant Hcp [4]: 0.29

CCCCI [1-iodobutane]
Henry solubility constant Hcp (reference: Brockbank (2013)): 0.00069

Brc1cc(Br)c(Oc2cc(Br)c(Br)cc2Br)cc1Br [2,2',4,4',5,5'-hexabromodiphenyl ether]
Henry solubility constant Hcp [7]: 2.9

O=[N+]([O-])c1ccccc1 [nitrobenzene]
Henry solubility constant Hcp (reference: Brockbank (2013)): 0.47
Henry solubility constant Hcp (reference: Goldstein (1982)): 0.47
Henry solubility constant Hcp [1]: 0.75

CCC[N+](=O)[O-] [1-nitropropane]
Henry solubility constant Hcp (reference: Brockbank (2013)): 0.14
Henry solubility constant Hcp [2]: 0.13
Henry solubility constant Hcp [3]: 0.13
Henry solubility constant Hcp [5]: 0.13
Henry solubility constant Hcp [4]: 0.13

OCCCCO [1,4-butanediol]
Henry solubility constant Hcp [2]: 35000
Henry solubility constant Hcp [3]: 35000

c1ccc2c(c1)-c1cccc3c1c-2cc1ccccc13 [benzo[b]fluoranthene]
Henry solubility constant Hcp (reference: Brockbank (2013)): 15

CCC(C)Cl (centres undefined) [2-chlorobutane]
Henry solubility constant Hcp (reference: Brockbank (2013)): 0.00041

Clc1cc(Cl)c(-c2cc(Cl)c(Cl)cc2Cl)cc1Cl [2,2',4,4',5,5'-hexachlorobiphenyl]
Henry solubility constant Hcp (reference: Murphy et al. (1983b)): 0.028

CCO [ethanol]
Henry solubility constant Hcp (reference: Brockbank (2013)): 1.8
Henry solubility constant Hcp [2]: 1.9
Henry solubility constant Hcp [3]: 1.9
Henry solubility constant Hcp (reference: Dohnal et al. (2006)): 1.8
Henry solubility constant Hcp (reference: Dubowski (1979)): 1.9
Henry solubility constant Hcp [8]: 1.7
Henry solubility constant Hcp (reference: Gaffney and Senum (1984)): 2
Henry solubility constant Hcp [5]: 2
Henry solubility constant Hcp [4]: 1.9
Henry solubility constant Hcp (reference: Schaffer and Daubert (1969)): 1.5
Henry solubility constant Hcp (reference: Timmermans (1960)): 1.6
Henry solubility constant Hcp (reference: Warneck (2006)): 1.9

Nc1ccccc1[N+](=O)[O-] [2-nitrobenzenamine]
Henry solubility constant Hcp (reference: Brockbank (2013)): 71

CCCC(=O)CC [3-hexanone]
Henry solubility constant Hcp (reference: Brockbank (2013)): 0.079

CCCCOCCOC(C)=O [2-butoxyethyl ethanoate]
Henry solubility constant Hcp (reference: Brockbank (2013)): 1.8

CCCCCC(C)O (centres undefined) [2-heptanol]
Henry solubility constant Hcp (reference: Brockbank (2013)): 0.33

[H] [hydrogen atom]
Henry solubility constant Hcp [2]: 2.6e-06
Henry solubility constant Hcp [3]: 2.6e-06
Henry solubility constant Hcp [5]: 2.6e-06
Henry solubility constant Hcp [4]: 2.6e-06

COC(=O)N(OC)c1ccccc1COc1ccn(-c2ccc(Cl)cc2)n1 [pyraclostrobine]
Henry solubility constant Hcp (reference: MacBean (2012b)): 190000

FN(F)N(F)F [dinitrogen tetrafluoride]
Henry solubility constant Hcp [2]: 8.4e-06
Henry solubility constant Hcp [3]: 8.4e-06
Henry solubility constant Hcp [4]: 8.4e-06

CC(C)O [2-propanol]
Henry solubility constant Hcp (reference: Brockbank (2013)): 1.2
Henry solubility constant Hcp [2]: 1.2
Henry solubility constant Hcp [3]: 1.2
Henry solubility constant Hcp [8]: 1.2
Henry solubility constant Hcp (reference: Hine and Weimar (1965)): 1.7
Henry solubility constant Hcp [5]: 1.3
Henry solubility constant Hcp [4]: 1.3

Cc1ccccc1C [1,2-dimethylbenzene]
Henry solubility constant Hcp (reference: Brockbank (2013)): 0.002
Henry solubility constant Hcp [8]: 0.0024

CC(C)=CC1C(C(=O)OCc2cccc(Oc3ccccc3)c2)C1(C)C (centres undefined) [phenothrin]
Henry solubility constant Hcp (reference: MacBean (2012b)): 1.5

CCCCCCCCO [1-octanol]
Henry solubility constant Hcp (reference: Brockbank (2013)): 0.34

Brc1ccc(Br)cc1 [1,4-dibromobenzene]
Henry solubility constant Hcp (reference: Kuramochi et al. (2004)): 0.011

CCCCCCCCCCO [1-decanol]
Henry solubility constant Hcp (reference: Brockbank (2013)): 0.2

ClCC(Cl)Cl [1,1,2-trichloroethane]
Henry solubility constant Hcp (reference: Barr and Newsham (1987)): 0.011
Henry solubility constant Hcp (reference: Brockbank (2013)): 0.011
Henry solubility constant Hcp [2]: 0.011
Henry solubility constant Hcp [3]: 0.011
Henry solubility constant Hcp [8]: 0.012
Henry solubility constant Hcp (reference: Goldstein (1982)): 0.012

C#CC(C)(C)NC(=O)c1cc(Cl)cc(Cl)c1 [propyzamide]
Henry solubility constant Hcp [6]: 0.052

CC1CO1 (centres undefined) [1,2-epoxypropane]
Henry solubility constant Hcp (reference: Goldstein (1982)): 0.052 and 0.051

N#Cc1c(Cl)cccc1Cl [2,6-dichlorobenzenenitrile]
Henry solubility constant Hcp [6]: 0.015

O=C1c2ccccc2C(=O)N1SC(Cl)(Cl)Cl [folpet]
Henry solubility constant Hcp [6]: 0.026

CCCCCOC=O [pentyl methanoate]
Henry solubility constant Hcp (reference: Brockbank (2013)): 0.017

CON(C)C(=O)Nc1ccc(Cl)c(Cl)c1 [linuron]
Henry solubility constant Hcp [6]: 1.8
Henry solubility constant Hcp (reference: MacBean (2012b)): 5000

CC(C)Br [2-bromopropane]
Henry solubility constant Hcp (reference: Brockbank (2013)): 0.0009

CCSC(=O)N(CC(C)C)CC(C)C [butylate]
Henry solubility constant Hcp [6]: 0.018

CC(C)CCO [3-methyl-1-butanol]
Henry solubility constant Hcp (reference: Brockbank (2013)): 0.82

Cc1cc2ccccc2cc1C [2,3-dimethylnaphthalene]
Henry solubility constant Hcp [9]: 0.011

Cc1cc(C)cc(O)c1 [1-hydroxy-3,5-dimethylbenzene]
Henry solubility constant Hcp (reference: Brockbank (2013)): 15

C#CCCCCCC [1-octyne]
Henry solubility constant Hcp (reference: Brockbank (2013)): 0.00012

O=NCl [nitrosyl chloride]
Henry solubility constant Hcp [2]: > 0.00049
Henry solubility constant Hcp [3]: > 0.00049

CCCCCCC(C)O (centres undefined) [2-octanol]
Henry solubility constant Hcp (reference: Brockbank (2013)): 0.27

CN=C=S [methyl isothiocyanate]
Henry solubility constant Hcp [2]: 0.17
Henry solubility constant Hcp [3]: 0.17
Henry solubility constant Hcp [4]: 0.17

C[Si](Cn1cncn1)(c1ccc(F)cc1)c1ccc(F)cc1 [flusilazole]
Henry solubility constant Hcp [6]: 27

C=CCCCCCCCCCCCC [1-tetradecene]
Henry solubility constant Hcp (reference: Brockbank (2013)): 3e-06

c1ccc2c(c1)cc1ccc3cccc4ccc2c1c34 [benzo[a]pyrene]
Henry solubility constant Hcp (reference: Brockbank (2013)): 4.5
Henry solubility constant Hcp (reference: Goldstein (1982)): 0.0016

CCCCCC [hexane]
Henry solubility constant Hcp (reference: Brockbank (2013)): 5.7e-06

CCOP(=S)(OCC)Oc1ccc([N+](=O)[O-])cc1 [parathion]
Henry solubility constant Hcp [6]: 0.8
Henry solubility constant Hcp (reference: MacBean (2012b)): 33

Cc1c(Br)c2ccc(F)cc2n1S(=O)(=O)c1ncn(S(=O)(=O)N(C)C)n1 [amisulbrom]
Henry solubility constant Hcp (reference: MacBean (2012b)): 47

ClC1=C(Cl)[C@]2(Cl)[C@H]3[C@H]([C@@H]4C=C[C@H]3C4)[C@@]1(Cl)C2(Cl)Cl [aldrin]
Henry solubility constant Hcp [6]: 0.00011
Henry solubility constant Hcp [9]: 0.02

Cc1ccccn1 [2-methylpyridine]
Henry solubility constant Hcp (reference: Brockbank (2013)): 0.98

ClC(Cl)C(Cl)(Cl)Cl [pentachloroethane]
Henry solubility constant Hcp (reference: Brockbank (2013)): 0.0042
Henry solubility constant Hcp [3]: 0.0041

CNC [dimethylamine]
Henry solubility constant Hcp (reference: Brockbank (2013)): 0.62
Henry solubility constant Hcp [2]: 0.55
Henry solubility constant Hcp [3]: 0.55

[Rn] [radon]
Henry solubility constant Hcp (reference: Clever (1979b)): 9.1e-05

OCC(Cl)Cl [2,2-dichloroethanol]
Henry solubility constant Hcp [2]: 0.37
Henry solubility constant Hcp [3]: 0.37

Cc1cccc(N)c1 [3-methylbenzenamine]
Henry solubility constant Hcp (reference: Brockbank (2013)): 5.6

CCCOC(C)=O [propyl ethanoate]
Henry solubility constant Hcp (reference: Brockbank (2013)): 0.044

CNC(=O)O/N=C/C(C)(C)SC [aldicarb]
Henry solubility constant Hcp [6]: 31

CCOC(C)(C)C [ethyl tert-butyl ether]
Henry solubility constant Hcp (reference: Brockbank (2013)): 0.0072

Cc1ccc(O)c(C)c1 [1-hydroxy-2,4-dimethylbenzene]
Henry solubility constant Hcp (reference: Brockbank (2013)): 3.5
Henry solubility constant Hcp (reference: Goldstein (1982)): 4.1
Henry solubility constant Hcp (reference: Howard (1989)): 16
Henry solubility constant Hcp (reference: Petrasek et al. (1983)): 17

Brc1ccc(Oc2cc(Br)c(Br)cc2Br)c(Br)c1 [2,2',4,4',5-pentabromodiphenyl ether]
Henry solubility constant Hcp [7]: 1.9

CO/N=C(/C(=O)OC)c1ccccc1CO/N=C(\C)c1cccc(C(F)(F)F)c1 [trifloxystrobin]
Henry solubility constant Hcp (reference: MacBean (2012b)): 430

Cc1ccc(Cl)cc1 [1-chloro-4-methylbenzene]
Henry solubility constant Hcp (reference: Brockbank (2013)): 0.0027

CCCOC=O [propyl methanoate]
Henry solubility constant Hcp (reference: Brockbank (2013)): 0.031
Henry solubility constant Hcp [2]: 0.026
Henry solubility constant Hcp [3]: 0.026
Henry solubility constant Hcp [4]: 0.026

CCS [ethanethiol]
Henry solubility constant Hcp [2]: 0.0028
Henry solubility constant Hcp [3]: 0.0028
Henry solubility constant Hcp [5]: 0.0028
Henry solubility constant Hcp [4]: 0.0028
